Tests used:
[1] = tested on: PGE2 in the aqueous humor; test: Prostaglandin E2 (PGE2) measurement in aqueous humor, rabbit paracentesis model; assay type: in vivo, Rabbit (New Zealand); conditions: for PGE2 in aqueous humor, statistical significance versus CTR: p<0.05; for PGE2 level in aqueous humor, Mean: second paracentesis, group mean
Description: Each rabbit was placed in a restraint device and tagged with the alphanumeric code. The formulations were instilled (50 μl) into the conjunctival sac of both eyes 180, 120, 90 and 30 min before the first paracentesis; then 15, 30, 90 min after the first paracentesis. To perform the first paracentesis the animals were anaesthetized by intravenous injection of 5 mg/kg Zoletil® (Virbac; 2.5 mg/kg tiletamine HCl and 2.5 mg/kg zolazepam HCl) and one drop of local anesthetic (Novesina®, Novartis) was administered to the eye. Anterior chamber paracentesis was performed with a 26 G needle attached to a tuberculin syringe; the needle was introduced into the anterior chamber through the cornea, taking care not to damage the tissues. Two hours after the first paracentesis, the animals were sacrificed with 0.4 ml Tanax® (Intervet International B.V.) and the second paracentesis was performed. About 100 μl of aqueous humor were removed at the second paracentesis. Aqueous humor was immediately split in four aliquots and stored at −80° C. until analysis. Then both eyes were enucleated and the iris-ciliary body was carefully excised, placed in polypropylene tubes, and stored at −80° C. until analysis.
For the quantitative determination of PGE2 in the aqueous humor we used the PGE2 Immunoassay kit (R&D Systems; Cat. No. KGE004; Lot. No. 240010). Eleven microliters or 16 μl of aqueous humor were diluted to 110 μl or 160 μl with the calibrator diluent solution provided with the kit. One hundred microliters of samples and of standards were load into a 96-well plate and recorded in a plate layout. Samples were treated following the assay procedure described in the kit. A microplate reader (GDV, Italy; model DV 990 B/V6) set at 450 nm (wavelength correction at 540 nm) was used for making the calibration and analyzing the samples.
Pupillary diameter, PGE2, protein, PMN, and MPO were expressed as mean±SEM. Statistical analysis was performed using one way ANOVA followed by a Newman-Keuls post hoc test. Clinical score was expressed as % of eyes and the statistical analysis was performed using Kruskal-Wallis followed by a Dunn post hoc test. P<0.05 was considered statistically significant in both cases. Prism 4 software (GraphPad Software, Inc.) was used for the analysis and graphs.

[2] = tested on: anterior chamber cells and flare following cataract surgery; test: Clinical study after cataract surgery: resolution of anterior chamber (AC) cells and flare; assay type: in vivo, human; conditions: 2% QID, 3% QD, 3% BID, and 3% QID
Description: There were 8 treatment groups in this study, consisting of three drug doses, vehicle and three dosing frequencies (see also Table 4-1): • Group A: 1% BOL-303242-X ophthalmic suspension, two times per day (BID) • Group B: 2% BOL-303242-X ophthalmic suspension, one time per day (QD) • Group C: 2% BOL-303242-X ophthalmic suspension, BID • Group D: 2% BOL-303242-X ophthalmic suspension, four times per day (QID) • Group E: 3% BOL-303242-X ophthalmic suspension, QD • Group F: 3% BOL-303242-X ophthalmic suspension, BID • Group G: 3% BOL-303242-X ophthalmic suspension, QID • Group H: Vehicle for BOL-303242-X (divided equally into QID, BID, and QD)
Subjects self-administered study drug, instilling 1 to 2 drops of study drug into the study eye: QID at approximately 4 hour intervals, BID at approximately 12 hour intervals, or QD once in the morning, for 14 days. The initial dose occurred in the clinic at Visit 3 and the final dose was on the day before Visit 6 (postoperative Day 15±1 day). Subjects were examined and evaluated according to the following schedule:
Visit 1 (screening), Visit 2 (cataract surgery), Visit 3 (postoperative Day 1), Visit 4 (postoperative Day 3±1 day), Visit 5 (postoperative Day 8±1 day), Visit 6 (postoperative Day 15±1 day), Visit 7 (postoperative Day 18±1 day). […]

In the case of `Cc1ccc2c(NC[C@](O)(CC(C)(C)c3cc(F)cc4c3OCC4)C(F)(F)F)cccc2n1` [BOL-303242-X, mapracorat], the “PGE2 in aqueous humor, statistical significance versus CTR” value ([1]; 0.1% formulation) was “statistically significant versus CTR”, the “PGE2 level in aqueous humor, Mean” value ([1]; 0.1% formulation) was 1.452 ng/mL and the “PGE2 in aqueous humor, statistical significance versus CTR” value ([1]; 0.5% formulation) was “statistically significant versus CTR”. The “PGE2 level in aqueous humor, Mean” value ([1]; 0.5% formulation) was 1.384 ng/mL, the “PGE2 level in aqueous humor, Mean” value ([1]; 1% formulation) was 2.168 ng/mL and the “improvements in AC cells and Grade 0 pain at Visit 5 (postoperative Day 8)” value [2] was “statistically significant improvements”.
